Patent US6900198B2, “Synthetic catalytic free radical scavengers useful as antioxidants for prevention and therapy of disease” (Eukarion, Inc., priority 1995, dated 2005)

Assays:
[1] = cited from earlier work
Rat brain slices = assay: Rat brain slice ischemia EPSP system; format: cell-based; details: 50 μM; untreated slices recovered only about 40%
Experimental: A widely used assay to determine the therapeutic potential of molecules in brain ischemia (stroke) consists of evaluating their ability to prevent irreversible damage induced by an anoxic episode in brain slices maintained under physiological conditions. Rat brain slices were maintained at 35° C. in an interface chamber in an artificial cerebrospinal fluid containing: 124 mM NaCl, 3 mM KCl, 1.25 mM KH2PO4, 3 mM CaCl, 1 mM MgCl2, 26 mM NaHCO3, 10 mM D-glucose, and 2 mM L-ascorbate, continuously gassed with a mixture of O2:CO2 (95:5). The atmosphere of the chamber was also continuously gased with the mixture of O2:CO2 (95:5), except during the anoxic episode when it was replaced by N2. Axons were electrically stimulated and the evoked excitatory post-synaptic potentials (EPSPs) were recorded using microelectrodes.
The extent of permanent damage can be quantified by measuring both the amplitude (in mV) and the initial slope (in mV/msec) of the EPSP.
After 5 minutes of baseline recording, O2 was replaced by N2 for an average of 5 minutes. O2 was then reintroduced and recording was continued for another 50 minutes. […] In contrast, recovery in untreated brain slices was only about 40% of pre-ischemia levels.
As an additional assessment of efficacy, the percentage of viable slices following repeated ischemic episodes was evaluated. […]

[2] = system: dopaminergic neurons in mouse striatum; assay: 6-OHDA in mice, 3H-mazindol binding in striatal homogenates; format: in vivo; details: C7 4×66 mg/kg; 6-OHDA 50 μg i.c.v.
Experimental: 6-OHDA in mice. Adult male CFW mice were anesthetized with ketamine and rumpun, and immobilized in a stereotaxic device. 6-OHDA, as the hydrobromide salt, was dissolved in normal saline with 1% ascorbate, and 50 μg was administered in lateral ventricle by means of a 10 μl Hamilton syringe. […] Animals were sacrificed 7 days later, and neuronal pathology was assessed by measuring ^3H-mazindol binding in striatal homogenates.

[3] = system: dopaminergic neurons in mouse brain; assay: MPTP animal model of Parkinson's disease, mazindol binding
Experimental: This model is now widely accepted in the art and is used for evaluating potential therapeutic agents for this disease.
Tritiated mazindol was used for binding studies on samples of the globus pallidus, caudate nucleus, and striatum of mouse brain according to conventional methods; specific binding of tritiated mazindol was determined autoradiographically or by membrane binding (specific binding to the membrane fraction). The experiment was performed over a 7 day period. Mice in the MPTP group were treated […] with MPTP alone (40 mg/kg each day on days 1 and 2). […] The animals were sacrificed after 7 days.
MPTP in mice. Adult male CFW mice (25-33 g) were administered two injections of MPTP dissolved in normal saline (40 mg/kg, s.c.) 24 hours apart. […] Animals were sacrificed 7 days after the first MPTP injection, and neuronal pathology was assessed by the binding of ^3H-mazindol, a ligand for the dopamine transporter, to […] frozen brain sections or to striatal homogenates.

[4] = C7 inactivation in H2O2, HPLC; format: physicochemical
Experimental: Where indicated, 1 mM ABTS was also present. Components were mixed and, after various incubations times, a 30 μl aliquot was injected onto the HPLC. The mixtures were chromatographed on an octadecyl-silica column using a mobile phase consisting of 60% methanol:40% 0.1 M NaCl and a flow rate of 1 ml/min. […] A third component, with a retention time of 4.8 min, was detectable under some conditions; its appearance and disappearance was monitored but it was not further analyzed. In this system, ABTS and its oxidized product had retention times of 3.4 and 3.1-min, respectively, well resolved from the peaks of interest. Absorbance spectra collected during each run allowed the identity of C7 and salicylaldehyde to be verified. All peaks were integrated based upon their absorbance at 240 nm. The results are expressed as the percentage of maximum peak area. […] For the two putative breakdown products, this is equivalent to the largest peak observed during the course of the ˜2000 sec incubation period.

[5] = 100 μM C7, 1 mM H2O2, with 1 mM ABTS

In the case of `[Cl][Mn]1[O]c2ccccc2C=NCCN=Cc2ccccc2[O]1` [Compound C7], the “SOD activity previously found” value [1] is listed as “about 769 units/mM”, the “recovery of EPSP amplitude and slopes after ischemia/reoxygenation” value (Rat brain slices) is listed as “recovered to pre-ischemia levels” and the “effect on 6-OHDA-induced decrease in mazindol binding, contralateral striatum” value [2] is listed as “complete protection”. The “effect on 6-OHDA-induced decrease in mazindol binding, ipsilateral striatum” value [2] was “significant reduction”, the “number of surviving dopaminergic neurons in mice treated with MPTP” value ([3]; C7 33 mg/kg i.p. days 1-3, MPTP 40 mg/kg days 1 and 2, versus MPTP alone) was “approximately doubled” and the “protection against the reduction in 3H-mazindol binding” value ([3]; C7 3×33 mg/kg, i.p., MPTP 2×40 mg/kg, s.c.) was “significant (p<0.05) degree of protection”. The “protection against the reduction in 3H-mazindol binding measured in striatal homogenates” value ([3]; C7 3×33 mg/kg, i.p., MPTP 2×40 mg/kg, s.c., panel B) was “significant protection”, the “number of dopaminergic neurons in regions of the mouse brain, compound alone” value ([3]; C7 alone, no MPTP) was “not adversely affected” and the “half life of the C7 peak” value ([4]; 100 μM C7, 1 mM H2O2, pH 8.1, absence of ABTS) was ~40 s. For the same molecule, the “C7 peak that disappeared rapidly” value [4, 5] was “about 20%” and the “C7 remaining over the entire ~2000 sec incubation” value [4, 5] was 80%.
